Source: ChEMBL document CHEMBL1152077, “Novel, water-soluble phosphate derivatives of 2-ethoxy carbonylpaclitaxel as potential prodrugs of paclitaxel: Synthesis and antitumor evaluation” (1995)

Tests used:
Type in all cases: functional
Mus musculus [1] = assay: Tested in vivo antitumor activity at a dose of subcutaneous 33 mg/kg/injection in Madison 109 murine lung carcinoma (M109)
Mus musculus [2] = assay: Tested in vivo antitumor activity at a dose of subcutaneous 48 mg/kg/injection relative to paclitaxel in Madison 109 murine lung carcinoma (M109)
Mus musculus [3] = assay: Tested in vivo antitumor activity at a dose of subcutaneous 18 mg/kg/injection relative to paclitaxel in Madison 109 murine lung carcinoma (M109)
Mus musculus [4] = assay: Tested in vivo antitumor activity at a dose of subcutaneous 40 mg/kg/injection in Madison 109 murine lung carcinoma (M109)
Mus musculus [5] = assay: Tested in vivo antitumor activity at a dose of subcutaneous 24 mg/kg/injection relative to paclitaxel in Madison 109 murine lung carcinoma (M109)

CCOC(=O)O[C@@H](C(=O)O[C@H]1C[C@@]2(O)[C@@H](OC(=O)c3ccccc3)[C@@H]3[C@]4(OC(C)=O)CO[C@@H]4C[C@H](OC(=O)Cc4ccccc4OP(=O)([O-])O)[C@@]3(C)C(=O)[C@H](OC(C)=O)C(=C1C)C2(C)C)[C@@H](NC(=O)c1ccccc1)c1ccccc1.[Na+]
T-C (Mus musculus [1]): 1.5 days (optimal dose)-1
T-C (Mus musculus [2]): 15.8 days (optimal dose)-1

CCOC(=O)O[C@@H](C(=O)O[C@H]1C[C@@]2(O)[C@@H](OC(=O)c3ccccc3)[C@@H]3[C@]4(OC(C)=O)CO[C@@H]4C[C@H](OC(=O)CC(C)(C)c4c(C)cc(C)cc4OP(=O)([O-])O)[C@@]3(C)C(=O)[C@H](OC(C)=O)C(=C1C)C2(C)C)[C@@H](NC(=O)c1ccccc1)c1ccccc1.[Na+]
T-C (Mus musculus [3]): 12.3 days (optimal dose)-1
T-C (Mus musculus [4]): 18 days (optimal dose)-1

CCOC(=O)O[C@@H](C(=O)O[C@H]1C[C@@]2(O)[C@@H](OC(=O)c3ccccc3)[C@@H]3[C@]4(OC(C)=O)CO[C@@H]4C[C@H](OC(=O)c4ccccc4COP(=O)([O-])O)[C@@]3(C)C(=O)[C@H](OC(C)=O)C(=C1C)C2(C)C)[C@@H](NC(=O)c1ccccc1)c1ccccc1.[K+]
T-C (Mus musculus [5]): 10.8 days (optimal dose)-1
T-C (Mus musculus [4]): 17 days (optimal dose)-1
